Reference: the METLIN SMRT retention time set (Domingo-Almenara et al. 2019)

experiment: gradient 5% acetonitrile 3 min, to 50% in 2 min, to 85% in 15 min, held 3 min, 100 µL/min; conditions: column: Zorbax Extend-C18 2.1 x 50 mm; eluents: water / acetonitrile, 0.1% formic acid
How it was run: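 Standards, all pure, were combined into mixtures of ~100 molecules and run at 100 μL/min on a Zorbax Extend-C18 column (2.1 × 50 mm, 1.8 μm) with water and acetonitrile, each containing 0.1% formic acid. A coupled quadrupole time-of-flight mass spectrometer operated in positive and negative ionization mode. Retention time values come from computationally picked adduct peaks, each inspected manually.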

| Structure (SMILES) | RP-LC retention time |
| --- | --- |
| CC(C)CCn1nc2c(S(=O)(=O)N3CCCCCC3)cccn2c1=O | 982 s |
| CC(C)Cc1cc(-c2nn3c(CSc4ccccc4)nnc3s2)n[nH]1 | 948 s |
| CCN(Cc1ccccc1)c1ccc(-c2noc(CN3CCOCC3)n2)cn1 | 826 s |
| CC(C(=O)N1CCN(C2CCCCC2)CC1)C1CCN(S(=O)(=O)c2cccs2)CC1 (configuration not stated) | 664 s |
| CC(C)n1nnc2cc(C(=O)N(C)C)ccc21 | 648 s |
| COC(=O)c1cc(C)nc2c1c(=O)n(Cc1cccc(C)c1)c(=O)n2Cc1ccco1 | 1170 s |
| Cc1ccc(-c2nc3c(C)cccn3c2Nc2ccc3c(c2)OCCO3)cc1 | 721 s |
| O=C(Nc1ccc2c(c1)OCCO2)N1CC2(CCCCC2)CC1COc1ccncc1 (configuration not stated) | 604 s |
| CCCCN(C)C(=O)c1ccc2c(c1)NC(=O)C(CC(C)C)N2 (configuration not stated) | 581 s |
| O=c1n(Cc2ccccc2F)nc2c(S(=O)(=O)N3CCN(c4ccc(F)cc4)CC3)cccn12 | 969 s |
| COc1ccc(OC)c(S(=O)(=O)N2CCc3nc[nH]c3C2)c1 | 554 s |
| CCOC(=O)c1noc2nc(C)nc(NCCc3ccc(OCC)cc3)c12 | 1170 s |
| CCOCc1cc(OC)c(-c2ccc(C[C@H](NC(=O)c3c(F)cccc3F)C(=O)O)cc2)c(OC)c1 | 1020 s |
| CCOc1ccc(C(=O)N2CCC3(CC2)NCc2ccccc2-n2ccnc23)cc1 | 619 s |
| Cc1noc(-c2nc(Cc3cccc(F)c3)no2)n1 | 940 s |
| O=C(Cn1cccc(-c2nc(-c3ccc(Br)cc3)no2)c1=O)Nc1ccc2c(c1)OCO2 | 935 s |
| O=C1c2cccc([N+](=O)[O-])c2C(=O)N1c1nc(-c2ccccc2)cs1 | 958 s |
| COc1cc(-c2noc(Cn3cnc4c(cnn4-c4ccc(F)cc4)c3=O)n2)cc(OC)c1OC | 938 s |

The remaining lines, values ahead:

| RP-LC retention time | Structure (SMILES) |
| --- | --- |
| 979 s | Cc1ccc(CN(C(=O)COc2ccc(Cl)c(C)c2)C2CCS(=O)(=O)C2)o1 (configuration not stated) |
| 858 s | O=C(NCc1ccco1)c1ccc2ccnc(N3CCN(c4ccc(Cl)cc4)CC3)c2c1 |
| 732 s | O=C(NC1CCCCC1)C1CCN(C(=O)C2Sc3ccccc3NC2=O)CC1 (configuration not stated) |
| 666 s | COCC(=O)NC1CCN(c2ccc(C)cc2)C1=O (configuration not stated) |
| 937 s | O=C(Cn1nc(S(=O)(=O)c2ccc(Cl)cc2)ccc1=O)N1CCN(c2ccccc2F)CC1 |
| 810 s | COc1cc(Cl)ccc1C(=O)NCc1c(C)noc1C |
| 830 s | CC1=C(c2ccc(F)cc2)S(=O)(=O)N=C1N1CCCN(C(=O)c2sccc2C)CC1 |
| 637 s | COCCNC(=O)CCc1cc2cc(C)ccc2[nH]c1=O |
| 720 s | CCCNC(=O)C1CCCN(c2ccc(SCC(=O)Nc3cc(Cl)ccc3C)nn2)C1 (configuration not stated) |
| 672 s | COCCN1CC2(CCN(S(=O)(=O)c3cc(C)c(C)cc3C)CC2)C1c1ccncc1 (configuration not stated) |
| 838 s | Cc1ccccc1Oc1nccn2c(=O)n(CC(=O)Nc3ccc(F)cc3)nc12 |
| 1120 s | COc1cc(OC)cc(C(=O)N2CCCC2c2nc(-c3cccc(C(F)(F)F)c3)no2)c1 (configuration not stated) |
| 682 s | COC(=O)c1cnc(N2CCN(Cc3ccccc3)CC2)c2ccccc12 |
| 661 s | O=C(CC1CCCCC1)NCC(=O)Nc1nc2ccccc2[nH]1 |
| 919 s | CCN1c2ccc(C)cc2C(=O)NC12CCN(C(=O)Cc1ccc(Cl)cc1)CC2 |
| 1250 s | CC(C)c1ccc(S(=O)(=O)N2CCCC2c2nc(-c3ccccc3)no2)cc1 (configuration not stated) |
| 995 s | CCc1cc(C(=O)Nc2cccc(C)c2)nc2ccnn12 |
| 535 s | CCCNC(=O)N1CCCN(C2CCN(Cc3ccccc3)C2=O)CC1 (configuration not stated) |
| 581 s | Cc1c(Cl)cccc1NC(=O)C1CCN(c2cc(-n3ccnc3C)ncn2)CC1 |
